Measurements: publication PMC2932999 (Journal of Medicinal Chemistry, 2010)

Key:
[1] = biological target: D197 Perth NA (B/Perth/211/2001 wild type neuraminidase) (Influenza B virus, UniProt Q3S340); format: biochemical; settings: read-out: Km for MUNANA
[2] = biological target: D197 Gifu NA (B/Gifu/11/2005 wild type neuraminidase) (Influenza B virus, UniProt Q38G88); format: biochemical; settings: read-out: Km for MUNANA
[3] = test system: wild type D197 NAs (B/Perth and B/Gifu); format: biochemical, influenza B virus
[4] = in vivo; cited from earlier work
[5] = biological target: recombinant B/Perth/211/2001 wild type D197 neuraminidase heads (influenza B virus B/Perth/211/2001); assay: negative-stain electron microscopy

Row | Molecule | association of inhibitor with NA [3] | dissociation of inhibitor from NA [3] | also measured
1 | CC(=O)N[C@H]1[C@H]([C@H](O)[C@H](O)CO)OC(Oc2ccc3c(C)cc(=O)oc3c2)(C(=O)O)C[C@@H]1O (some centres unmarked) [MUNANA, 4-methylumbelliferyl-N-acetylneuraminic acid] |  |  | Km [1]: 12.4 ± 4.2 µM; Km [2]: 10.5 ± 1.4 µM
2 | CC(=O)N[C@H]1[C@H]([C@H](O)[C@H](O)CO)OC(C(=O)O)=C[C@@H]1NC(=N)N [compound 1, zanamivir] | slow association | slow dissociation | levels delivered to the upper respiratory tract [4]: up to 10 000 nmol/L
3 | CCC(CC)[C@H](NC(C)=O)[C@@H]1[C@H](O)[C@@H](C(=O)O)C[C@H]1NC(=N)N [compound 3, peramivir] | slow association | slow dissociation | 
4 | recombinant B/Perth/211/2001 wild type D197 neuraminidase heads (enzyme) |  |  | stoichiometry N [5]: 4
